# Activity calls are given as the source filed them.
# Assays:
# [1] = target: T1, Replicative DNA helicase DnaB (Mycobacterium tuberculosis, UniProt P9WMR3); experiment: DnaB intein splicing inhibitors, dose response, biochemical, cell-free fluorescence (AID 449749); assay type: functional
# T1 sequence (P9WMR3 whole entry): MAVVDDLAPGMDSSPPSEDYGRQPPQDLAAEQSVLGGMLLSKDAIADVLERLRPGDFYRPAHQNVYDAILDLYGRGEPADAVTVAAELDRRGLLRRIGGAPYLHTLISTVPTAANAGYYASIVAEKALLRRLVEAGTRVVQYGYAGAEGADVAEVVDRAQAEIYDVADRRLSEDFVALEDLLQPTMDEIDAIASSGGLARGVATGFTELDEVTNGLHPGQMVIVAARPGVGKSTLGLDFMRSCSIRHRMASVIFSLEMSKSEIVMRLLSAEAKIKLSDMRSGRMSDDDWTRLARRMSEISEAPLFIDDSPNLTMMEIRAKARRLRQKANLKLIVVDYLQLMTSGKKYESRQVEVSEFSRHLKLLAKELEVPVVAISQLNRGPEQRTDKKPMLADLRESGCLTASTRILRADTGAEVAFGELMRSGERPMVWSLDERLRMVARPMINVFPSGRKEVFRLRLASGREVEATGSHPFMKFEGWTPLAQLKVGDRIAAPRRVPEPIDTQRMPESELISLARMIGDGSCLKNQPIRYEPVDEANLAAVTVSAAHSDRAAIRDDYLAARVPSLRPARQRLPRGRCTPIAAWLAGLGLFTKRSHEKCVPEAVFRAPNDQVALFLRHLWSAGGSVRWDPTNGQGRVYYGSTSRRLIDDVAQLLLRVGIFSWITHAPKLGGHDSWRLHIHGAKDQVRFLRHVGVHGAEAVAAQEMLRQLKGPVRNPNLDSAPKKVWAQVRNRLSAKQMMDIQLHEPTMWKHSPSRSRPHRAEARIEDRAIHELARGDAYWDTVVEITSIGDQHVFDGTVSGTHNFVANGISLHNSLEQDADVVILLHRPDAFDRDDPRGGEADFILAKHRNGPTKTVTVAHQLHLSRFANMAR
# Protein RecA = target: T2, Protein RecA (Mycobacterium tuberculosis, UniProt P9WHJ3); experiment: Fluorescence Cell-Free Homogeneous Dose Retest to Identify Inhibitors of RecA-Intein Splicing Activity. [Related pubchem assays (depositor defined):AID2097, AID2223, AID489010, AID492950]; assay type: functional
# T2 sequence (P9WHJ3 whole entry): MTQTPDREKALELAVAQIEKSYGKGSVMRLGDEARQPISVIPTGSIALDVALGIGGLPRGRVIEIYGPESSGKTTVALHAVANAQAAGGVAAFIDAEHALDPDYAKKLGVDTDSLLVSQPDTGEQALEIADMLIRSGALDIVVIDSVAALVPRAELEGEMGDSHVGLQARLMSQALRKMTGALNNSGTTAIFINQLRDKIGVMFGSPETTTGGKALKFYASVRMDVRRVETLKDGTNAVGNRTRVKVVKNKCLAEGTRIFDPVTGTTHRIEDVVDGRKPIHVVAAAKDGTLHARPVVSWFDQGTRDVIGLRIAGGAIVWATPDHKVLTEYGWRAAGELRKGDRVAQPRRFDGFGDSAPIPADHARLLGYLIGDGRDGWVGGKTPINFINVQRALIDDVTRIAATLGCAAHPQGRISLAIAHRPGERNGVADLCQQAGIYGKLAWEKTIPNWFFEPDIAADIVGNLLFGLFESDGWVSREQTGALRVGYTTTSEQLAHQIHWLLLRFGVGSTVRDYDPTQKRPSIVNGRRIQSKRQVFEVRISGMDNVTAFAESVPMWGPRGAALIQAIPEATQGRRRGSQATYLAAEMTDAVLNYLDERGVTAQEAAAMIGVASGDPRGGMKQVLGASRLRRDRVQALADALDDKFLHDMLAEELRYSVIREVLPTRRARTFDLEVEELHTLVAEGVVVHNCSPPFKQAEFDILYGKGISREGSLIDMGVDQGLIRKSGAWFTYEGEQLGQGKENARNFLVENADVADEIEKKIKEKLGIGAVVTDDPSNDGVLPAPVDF
# [2] = target: T3, Heat shock factor protein 1 (Mus musculus, UniProt P38532); experiment: enhancement of HSF1-driven luciferase signal – cell-based, NIH3T3, luminescence, dose retest, confirmation (AID 435004); assay type: functional;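 note: stress induced by proteasome inhibitor MG132 added 30 min after compound; luciferase reporter driven by HSF1 response element in NIH3T3 cells; actives raise luminescence as potentiators of the MG132 stress response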
# T3 sequence (P38532 whole entry): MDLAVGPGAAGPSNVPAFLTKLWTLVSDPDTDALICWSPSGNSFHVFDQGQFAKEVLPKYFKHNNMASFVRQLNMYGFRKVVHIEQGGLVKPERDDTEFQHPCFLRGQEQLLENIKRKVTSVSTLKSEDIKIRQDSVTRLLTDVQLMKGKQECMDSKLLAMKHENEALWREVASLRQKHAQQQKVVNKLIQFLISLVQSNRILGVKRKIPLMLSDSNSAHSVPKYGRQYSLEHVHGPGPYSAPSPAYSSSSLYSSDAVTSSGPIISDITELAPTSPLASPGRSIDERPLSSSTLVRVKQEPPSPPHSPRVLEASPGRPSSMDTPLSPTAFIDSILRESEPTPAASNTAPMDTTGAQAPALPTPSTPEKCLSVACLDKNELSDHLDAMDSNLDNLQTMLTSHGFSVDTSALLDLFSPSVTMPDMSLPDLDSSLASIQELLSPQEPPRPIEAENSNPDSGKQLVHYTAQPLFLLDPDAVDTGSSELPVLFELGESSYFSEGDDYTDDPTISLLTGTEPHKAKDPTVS
# Cytochrome P450 3A4 = Cytochrome P450 3A4 (Homo sapiens, UniProt P08684);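 note: CYP3A4 tested as one member of a cytochrome P450 panel screen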
# Cytochrome P450 2D6 = Cytochrome P450 2D6 (Homo sapiens, UniProt P10635);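 note: CYP2D6 member of a cytochrome P450 panel assay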
# Cytochrome P450 2C9 = Cytochrome P450 2C9 (Homo sapiens, UniProt P11712)
# [3] = NIH3T3 cell viability loss – ATP luminescence, mouse fibroblasts, counter-screen, dose response (AID 2010); assay type: functional, cell-based;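 note: cells exposed to compound for about 90 hours before reading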
# [4] = Trypanosoma cruzi growth suppression in host cells – NIH3T3 host cells, beta-gal luminescence, confirmation (AID 2044); assay type: functional, cell-based;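 note: intracellular parasites grown in NIH/3T3 mouse fibroblasts as host cells; luminescent beta-galactosidase reporter signal from transgenic T. cruzi replicating inside host cells; inhibitors lower the luminescence signal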
# [5] = Luminescence Cell-Based Dose Response HTS to Identify Inhibitors of 5'UTR Stem-Loop Driven Prion Protein mRNA Translation in H4 Neuroglioblastoma Cells. [Related pubchem assays: 1827 (Project Summary), 1813 (Primary HTS)]; assay type: functional
# [6] = alpha-synuclein stem-loop luciferase translation blockers – H4 neuroglioma cells, luminescence, confirmation (AID 1988); assay type: functional, cell-based
# INS1 = experiment: INS-1E survival protection against cytokine death – cell-based, luminescence, retest, dose response (AID 449756); assay type: functional; conditions: Rattus norvegicus;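 note: cell death triggered by IL-1 beta plus TNF-alpha plus IFN-gamma mixture; protective hits raise ATP signal compared with cytokine alone wells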
# Cytochrome P450 2C19 = Cytochrome P450 2C19 (Homo sapiens, UniProt P33261); experiment: Cytochrome panel assay with activity outcomes. Panel member name: p450-cyp2c19 Compounds with AC50 equal or less than 10 uM are considered active; assay type: functional; conditions: read-out: AC50
# [7] = target: T3, Heat shock factor protein 1; experiment: decrease of HSF1-responsive luciferase luminescence – cell-based, NIH3T3, dose retest, confirmation (AID 2382); assay type: functional;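 note: NIH3T3 fibroblasts with HSF1-driven luciferase reporter stressed by proteasome inhibitor MG132; luminescence from HSF1-driven luciferase expression after 8 hours of MG132 stress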
# Cytochrome P450 2C9, sequence (P11712 whole entry): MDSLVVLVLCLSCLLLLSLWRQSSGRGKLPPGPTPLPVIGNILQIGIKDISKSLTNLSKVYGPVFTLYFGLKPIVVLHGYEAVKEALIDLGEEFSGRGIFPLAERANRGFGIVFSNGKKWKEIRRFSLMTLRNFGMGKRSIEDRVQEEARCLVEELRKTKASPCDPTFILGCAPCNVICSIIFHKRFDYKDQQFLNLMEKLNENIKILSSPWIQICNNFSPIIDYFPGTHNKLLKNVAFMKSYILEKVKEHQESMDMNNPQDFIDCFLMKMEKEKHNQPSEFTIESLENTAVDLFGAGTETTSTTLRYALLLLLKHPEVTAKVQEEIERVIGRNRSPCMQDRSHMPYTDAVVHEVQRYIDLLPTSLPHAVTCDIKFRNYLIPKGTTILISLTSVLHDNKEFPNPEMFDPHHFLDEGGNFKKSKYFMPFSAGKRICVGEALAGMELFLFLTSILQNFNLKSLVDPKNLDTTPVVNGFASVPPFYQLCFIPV
# Cytochrome P450 3A4, sequence (P08684 whole entry): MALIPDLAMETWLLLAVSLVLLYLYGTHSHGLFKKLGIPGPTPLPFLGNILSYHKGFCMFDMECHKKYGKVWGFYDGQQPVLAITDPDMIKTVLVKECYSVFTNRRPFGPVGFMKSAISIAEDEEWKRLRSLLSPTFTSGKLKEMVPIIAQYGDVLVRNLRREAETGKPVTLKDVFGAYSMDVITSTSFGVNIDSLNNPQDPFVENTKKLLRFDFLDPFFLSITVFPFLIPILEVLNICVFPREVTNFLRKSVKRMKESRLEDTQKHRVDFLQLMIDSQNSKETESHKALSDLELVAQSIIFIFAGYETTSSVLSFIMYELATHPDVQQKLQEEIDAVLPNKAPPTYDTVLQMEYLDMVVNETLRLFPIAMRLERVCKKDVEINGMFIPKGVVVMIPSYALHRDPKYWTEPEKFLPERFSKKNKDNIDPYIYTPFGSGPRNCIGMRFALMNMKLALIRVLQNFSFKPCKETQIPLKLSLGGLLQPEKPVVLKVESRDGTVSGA
# Cytochrome P450 2D6, sequence (P10635 whole entry): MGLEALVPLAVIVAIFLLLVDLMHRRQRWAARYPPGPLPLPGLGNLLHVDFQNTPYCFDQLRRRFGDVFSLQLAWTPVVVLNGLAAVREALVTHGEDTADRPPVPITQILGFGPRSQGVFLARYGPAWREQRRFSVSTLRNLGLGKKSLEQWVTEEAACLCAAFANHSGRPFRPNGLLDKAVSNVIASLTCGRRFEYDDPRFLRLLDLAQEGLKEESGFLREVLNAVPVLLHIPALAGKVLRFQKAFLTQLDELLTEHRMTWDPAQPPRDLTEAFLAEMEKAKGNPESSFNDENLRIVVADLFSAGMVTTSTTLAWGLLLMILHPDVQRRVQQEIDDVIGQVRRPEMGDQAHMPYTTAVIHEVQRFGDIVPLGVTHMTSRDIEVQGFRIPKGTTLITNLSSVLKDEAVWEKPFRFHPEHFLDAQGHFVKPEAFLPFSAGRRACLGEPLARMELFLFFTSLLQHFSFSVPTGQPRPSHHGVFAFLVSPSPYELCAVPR
# Cytochrome P450 2C19, sequence (P33261 whole entry): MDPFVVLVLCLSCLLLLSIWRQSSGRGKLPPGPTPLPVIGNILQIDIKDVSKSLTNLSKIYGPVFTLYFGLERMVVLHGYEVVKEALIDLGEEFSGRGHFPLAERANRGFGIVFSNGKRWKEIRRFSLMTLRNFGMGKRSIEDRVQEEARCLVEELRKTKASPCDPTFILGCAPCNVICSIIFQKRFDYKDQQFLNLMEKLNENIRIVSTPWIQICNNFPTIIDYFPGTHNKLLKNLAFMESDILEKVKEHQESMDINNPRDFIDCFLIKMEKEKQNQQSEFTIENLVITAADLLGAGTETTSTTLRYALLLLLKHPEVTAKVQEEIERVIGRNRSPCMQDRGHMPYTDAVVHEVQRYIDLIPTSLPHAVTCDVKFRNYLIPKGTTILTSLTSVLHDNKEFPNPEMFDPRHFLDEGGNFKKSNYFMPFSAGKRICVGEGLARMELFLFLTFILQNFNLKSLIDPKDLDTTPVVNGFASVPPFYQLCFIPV
smiles,measurement,setting,value
CCOC(=O)c1cnc2ccc(C)cc2c1Sc1ccc(F)cc1,AC50,[1],5.76 µM (active)
same,EC50,Protein RecA,2.95 µM (active)
same,EC50,[2],11.2 µM (active)
CN1CCN(C(=O)/C(=C/c2cccnc2)NC(=O)c2cccc(Br)c2)CC1,EC50,[2],> 260 µM (inactive)
COc1ccc(C(=O)N2CCC3(CCCN(Cc4ccccc4OC)C3)CC2)cc1,AC50,Cytochrome P450 3A4,15.8 µM (inconclusive)
same,AC50,Cytochrome P450 2D6,12.6 µM (inconclusive)
Nc1nnc(CSCc2ccccc2Cl)s1,EC50,[2],> 260 µM (inactive)
O=C(NC1CCCC1)C(c1ccc(F)cc1)N(Cc1ccc(F)cc1)C(=O)c1cc[nH]n1 (configuration not stated),AC50,Cytochrome P450 2C9,39.8 µM (inconclusive)
same,AC50,Cytochrome P450 2D6,25.1 µM (inconclusive)
CCN(CC)S(=O)(=O)c1ccc2oc(C(=O)NC3CCCc4ccccc43)c(C)c2c1 (configuration not stated),EC50,[3],> 60 µM (not active)
same,EC50,[4],2.1 µM (active)
CC1CC(C)CN(C(=O)CCS(=O)(=O)c2ccc3c(c2)NC(=O)CS3)C1 (configuration not stated),EC50,[2],> 260 µM (inactive)
Cc1nnc2nc(SCC(=O)NCC3CCCO3)n(-c3ccc(Br)cc3)c(N)c1-2 (configuration not stated),AC50,Cytochrome P450 2C9,14.1 µM (inconclusive)
same,AC50,Cytochrome P450 2D6,10 µM (inconclusive)
O=C(Nc1ccccc1)N1CCCN(c2ccc(C(F)(F)F)cc2[N+](=O)[O-])CC1,EC50,[2],> 260 µM (inactive)
Cc1ccc(S(=O)(=O)c2cc(C#N)c(O)nc2N)cc1,AC50,Cytochrome P450 3A4,25.1 µM (inconclusive)
same,AC50,Cytochrome P450 2D6,39.8 µM (inconclusive)
CCc1cc2c3c(c1)C1(C(=O)N3C(C)(C)C=C2C)C(C#N)=C(N)Oc2nc(O)nc(O)c21 (configuration not stated),AC50,[1],11 µM (active)
same,EC50,Protein RecA,2.65 µM (active)
CS(=O)(=O)C1=NN2C(=N)/C(=C\c3ccc(OC(=O)c4ccco4)cc3)C(=O)N=C2S1,AC50,[1],> 380 µM (inactive)
same,EC50,Protein RecA,16.8 µM (active)
COc1ccc(C(=O)ON=C(N)c2ccccc2)c(OC)c1,EC50,[5],> 120 µM (not active)
same,EC50,[6],5.93 µM (active)
Cc1ccccc1OCCNC(=O)c1ccccc1Sc1ccccc1C#N,AC50,Cytochrome P450 2C9,28.2 µM (inconclusive)
same,AC50,Cytochrome P450 2D6,25.1 µM (inconclusive)
Cn1cc(C=O)c(-c2ccc3c(c2)OCCCO3)n1,EC50,[2],> 260 µM (inactive)
Cc1cccc(C(C)C)c1NC(=O)COC(=O)c1cccc(S(=O)(=O)N2CCc3ccccc3C2)c1,EC50,[2],> 260 µM (inactive)
Cc1ccc(N2C(=O)C(Cl)=C(NCc3ccccc3)C2=O)c(C)c1,AC50,Cytochrome P450 2D6,22.4 µM (inconclusive)
CC(C)(CC(=O)N1CCN(c2ccc(Cl)cc2)CC1)CC1=NS(=O)(=O)c2ccccc2N1,AC50,Cytochrome P450 2D6,3.16 µM (inconclusive)
CCOc1ccc(NC(=S)N(Cc2ccc(Cl)cc2)Cc2ccco2)cc1,EC50,[2],> 260 µM (inactive)
CCCCCC1=C2CNC(CCC)(C(=O)OC)C=C2C(C)C1=O (configuration not stated),AC50,Cytochrome P450 2D6,12.6 µM (inconclusive)
O=C(NCc1cccnc1)c1cc(-c2ccco2)on1,AC50,INS1,1.62 µM (active)
CSc1c(-c2ccccc2)nc2ccccc2c1C(=O)O,AC50,Cytochrome P450 2C19,10 µM (inconclusive)
same,AC50,Cytochrome P450 2D6,3.16 µM (inconclusive)
CC(C)CCN(C(=O)CNC(=O)c1cccs1)C(C(=O)NC1CCCCC1)c1cccnc1 (configuration not stated),EC50,[7],> 195 µM (not active)
CCOc1cc(C2C(C#N)=C(N)Oc3[nH]nc(C)c32)ccc1OCCN1CCOCC1 (configuration not stated),AC50,[1],50.6 µM (active)
same,EC50,Protein RecA,4.45 µM (active)
O=C1NC(=S)S/C1=C\c1nc2ccccc2[nH]1,AC50,[1],> 380 µM (inactive)
same,EC50,Protein RecA,> 120 µM (inactive)
CNC(=O)c1[nH]cnc1C(=O)Nc1ccccc1C,EC50,[7],> 195 µM (not active)
CCN1C(=O)CC(N2CCN(c3ccc(C(=O)c4ccccc4)cc3)CC2)C1=O (configuration not stated),EC50,[2],> 260 µM (inactive)
O=C(NC1CCSc2ccccc21)c1ccccc1Cl (configuration not stated),EC50,[2],> 260 µM (inactive)
FC(F)(F)c1ccccc1-c1cc(NCc2cccnc2)ncn1,AC50,Cytochrome P450 2D6,25.1 µM (inconclusive)
CN(C)CCCn1c(N)c(C#N)c2nc(C#N)c(C#N)nc21,EC50,[2],58.3 µM (active)
COCCNc1nc(-c2ccccc2OC)nc2ccccc12,AC50,Cytochrome P450 3A4,20 µM (inconclusive)
same,AC50,Cytochrome P450 2D6,25.1 µM (inconclusive)
COc1ccc(S(=O)(=O)N2CCCC2)cc1C(C)C,EC50,[7],> 195 µM (not active)
O=C(CCNc1ccc(F)cc1)c1cc2ccccc2o1,EC50,[3],> 60 µM (not active)
same,EC50,[4],1.12 µM (active)
CCc1ccc(-c2cc(C(F)(F)F)n3nc(C(=O)Nc4cnn(Cc5ccc(C)cc5)c4)cc3n2)s1,AC50,INS1,3.63 µM (active)
c1ccc2c(c1)ncn2-c1ncnc2sc3c(c12)CCCC3,AC50,Cytochrome P450 3A4,14.1 µM (inconclusive)
same,AC50,Cytochrome P450 2C9,20 µM (inconclusive)
same,AC50,Cytochrome P450 2D6,0.00501 µM (inconclusive)
CCOC(=O)c1c(N=C(S)N2CCOCC2)sc2c1CCN(C(=O)OCC)C2,AC50,[1],5.25 µM (active)
same,EC50,Protein RecA,20.1 µM (active)
COc1cccc(N/C([S-])=C(/C(=O)c2ccc(C)c([N+](=O)[O-])c2)[n+]2ccccc2)c1,AC50,[1],13.3 µM (active)
same,EC50,Protein RecA,9.74 µM (active)
NCCCc1ccc2oc3ccccc3c2c1,AC50,Cytochrome P450 2C19,7.94 µM (inconclusive)
same,AC50,Cytochrome P450 2D6,2.51 µM (inconclusive)
COc1ccccc1NC(=O)CN1CCN(CC(=O)Nc2ccccc2Cl)CC1,EC50,[2],> 260 µM (inactive)
C[C@H](CO)N1C[C@H](C)[C@@H](CN(C)C(=O)NC2CCCCC2)Oc2c(NC(=O)Nc3ccc(C(F)(F)F)cc3)cccc2C1=O,AC50,INS1,27.7 µM (active)
Oc1ccc(/C(Cc2ccc3ccccc3n2)=N\Nc2ccccc2)c(O)c1,AC50,[1],78.3 µM (active)
same,EC50,Protein RecA,13.6 µM (active)
O=C(N/N=C/c1ccc(-c2cccc([N+](=O)[O-])c2)o1)c1cccs1,EC50,[3],> 60 µM (not active)
same,EC50,[4],0.634 µM (active)
CC1Cc2ccccc2N1C(=O)CO/N=C/c1ccc(OC(F)F)cc1 (configuration not stated),EC50,[7],> 195 µM (not active)
O=C(N/N=C/c1cccnc1)c1ccccc1NS(=O)(=O)c1cccs1,AC50,INS1,> 260 µM (inactive)
